Results taken from patent US12054495B2, “Substituted macrocyclic compounds and related methods of treatment” (Alkermes, Inc., priority 2019, dated 2024).
Read-outs that look alike come from different tables or passages of the source.

Legend:
Sprague-Dawley rats = assay: Assessment of wake promotion in Sprague-Dawley rats (EEG/EMG); type: in vivo; details: Rattus norvegicus, 3 mpk, male Sprague-Dawley rats, dosed at ZT5, 6-hour post-dose period, read-out: Mean cortical activation time (% vehicle treatment)
Method: Wake promotion was assessed using electroencephalography (EEG) and electromyography (EMG) in adult male Sprague-Dawley rats (350-600 g). All rats (Charles River Laboratories, Raleigh, NC, USA) were intraperitoneally implanted with telemetry devices (F50-EEE, Data Sciences International Inc., M/N, USA) under isoflurane anesthesia. For EEG, stainless steel screws were implanted over frontal cortex and parietal cortex, and reference screws were placed over cerebellum. Additionally, an electrode was placed in neck muscle for EMG. Rats were given carprofen post-surgery and underwent a 7 to 10-day recovery period. Rats habituated to the experimental room for 7 days and were maintained on a 12-hour light-dark cycle.
EEG and EMG data were recorded using the DSI telemetry system and Ponemah software (Data Sciences International Inc., MN, USA). Sleep-wake stages were scored both manually and with Somnivore, a supervised machine learning software platform, in 10 second epocs. Records were visually inspected as needed post-processing.
All test compounds were dissolved in 5% DMSO and suspended in 95% saline with 0.5% methylcellulose and 0.5% tween. […] Unless otherwise indicated, all compounds were dosed orally. Recordings for each rat were initiated immediately after dosing and lasted for 6 hours post-dose.
Two key endpoints include wakefulness time and cortical activation time. Wakefulness time is derived from the sleep-wake stage analysis. Cortical activation time is based on the duration in which frontal gamma oscillatory activity (30-100 Hz), a key feature of wakefulness, was elevated relative to a pre-treatment baseline. Mean cortical activation time was computed relative to vehicle treatment for the 6-hour post-dose period.

[1] = target: T1, human orexin-2 receptor (OX2R) (Homo sapiens, UniProt O43614); assay: Human OX2R IP1 assay; type: cell-based; details: T-Rex CHO cells stably overexpressing human OX2R, IP1 accumulation, 1 hr at 37 degrees C; mean EC50; ∧ = racemic mixture
T1 construct: expressed in transfected cells
T1 sequence (O43614 1-444): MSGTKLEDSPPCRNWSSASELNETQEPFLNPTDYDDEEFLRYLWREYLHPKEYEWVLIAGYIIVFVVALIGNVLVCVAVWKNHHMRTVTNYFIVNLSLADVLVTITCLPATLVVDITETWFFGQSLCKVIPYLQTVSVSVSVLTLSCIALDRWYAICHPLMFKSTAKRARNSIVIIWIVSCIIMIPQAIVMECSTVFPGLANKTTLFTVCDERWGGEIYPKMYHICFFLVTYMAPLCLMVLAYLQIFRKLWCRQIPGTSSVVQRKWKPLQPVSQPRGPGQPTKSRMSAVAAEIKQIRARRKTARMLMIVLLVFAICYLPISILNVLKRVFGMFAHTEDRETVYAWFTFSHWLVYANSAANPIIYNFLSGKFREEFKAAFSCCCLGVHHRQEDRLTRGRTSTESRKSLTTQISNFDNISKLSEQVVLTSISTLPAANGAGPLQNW
Summary of the method: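 Doxycycline-induced T-Rex CHO cells stably expressing human OX2R treated with compound 1 hr at 37 °C in LiCl-containing buffer, pH 7.4. IP1 accumulation quantified by HTRF competitive immunoassay; EC50 reported as mean ± S.E.M.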

Structure (SMILES) | response vs control in vivo at 3 mg/kg (Sprague-Dawley rats; PO) | EC50 [1] | response vs control in vivo at 3 mg/kg (Sprague-Dawley rats; SC)
CS(=O)(=O)N[C@@H]1CCCN2C(=O)COc3cccc(F)c3[C@H]3CC[C@H](CC3)OC[C@H]12 (racemic) [Compound 49] | 340% | < 100 nM | 
COC(=O)N1CCC[C@H](NS(C)(=O)=O)[C@@H]1CO[C@H]1CC[C@@H](c2ccccc2)CC1 [methyl (2R,3S)-3-((methylsulfonyl)amino)-2-(((cis-4-phenylcyclohexyl)oxy)methyl)-piperidine-1-carboxylate, reference compound] |  | < 100 nM | 119%
